Measurements: patent publication US20130029936A1, “Inclusion Compounds of Fumagillol Derivative or its Salt, and Pharmaceutical Compositions Comprising the Same” (priority 2002, published 2013)
≈ marks a conversion by molar mass, not a printed value.

Key:
[1] = Solubility in sulfobutylether-7-β-cyclodextrin solution (HPLC of filtrate); assay type: physicochemical; settings: 4° C., 72 hr
Experimental: (§1) O-(4-dimethylaminoethoxycinnamoyl)fumagillol (30 mg) was added to 1.5, 3.5, 7.0, 14.0, 28.0 w/v % sulfobutylether-7-β-cyclodextrin solution, respectively, and stirred at 4° C. After 72 hr, the mixture was filtered with 0.2 μm membrabe filter and O-(4-dimethylaminoethoxycinnamoyl)fumagillol in the filtrate was determined by high pressure liquid chromatography (HPLC). The solubility of O-(4-dimethylaminoethoxycinnamoyl)fumagillol as a function of the sulfobutylether-7-β-cyclodextrin concentration was represented in Table 2.
(§2) O-(3,4,5-trimethoxycinnamoyl)fumagillol (20 mg) was added to 1.5, 3.5, 7.0, 14.0, 28.0 w/v % sulfobutylether-7-β-cyclodextrin solution, respectively, and stirred at 4° C. After 72 hr, the mixture was filtered with 0.2 μm membrabe filter and O-(3,4,5-trimethoxycinnamoyl)fumagillol in the filtrate was determined by high pressure liquid chromatography (HPLC). The solubility of O-(3,4,5-trimethoxycinnamoyl)fumagillol as a function of the sulfobutyletyher-7-β-cyclodextrin concentration was shown in Table 4.

[2] = Solubility in hydroxypropyl-β-cyclodextrin solution (HPLC of filtrate); assay type: physicochemical
[3] = as above; assay type: physicochemical; settings: 4° C., 72 hr
Experimental: as §1, with “% hydroxypropyl-β-cyclodextrin” for “% sulfobutylether-7-β-cyclodextrin”, “of O-(4-dimethylamino ethoxycinnamoyl)fumagillol” for “of O-(4-dimethylaminoethoxycinnamoyl)fumagillol”, “the hydroxypropyl-β-cyclodextrin” for “the sulfobutylether-7-β-cyclodextrin”, “Table 1.” for “Table 2.”
as §2, with “% hydroxypropyl-β-cyclodextrin” for “% sulfobutylether-7-β-cyclodextrin”, “the hydroxypropyl-β-cyclodextrin” for “the sulfobutyletyher-7-β-cyclodextrin”, “Table 3.” for “Table 4.”

[4] = Stability of lyophilized powders under storage at 25° C. (residual amount by HPLC); assay type: physicochemical
Experimental: The stability of the lyophilized powders obtained in Example 6 was compared with that of O-(4-dimethylaminoethoxycinnamoyl)fumagillol alone under storage at 25° C. The residual amount of O-(4-dimethylaminoethoxycinnamoyl)fumagillol was determined by HPLC.
The stability of the lyophilized powders obtained in Example 7 was compared with that of O-(3,4,5-trimethoxycinnamoyl)fumagillol alone at 25° C. The residual amount of O-(3,4,5-trimethoxycinnamoyl)fumagillol was determined by HPLC.

[5] = Solubility evaluation with cosolvents and surfactants; assay type: physicochemical
Excerpt: However, these formulations have a number of disadvantages, which are the inability to guarantee the long-term stability due to facile hydrolysis in solution state, the inability to be buffered due to increased sensitivity to ions resulting in precipitation and further, the toxicity of the surfactants.

[6] = system: Lewis lung carcinoma; assay: Tumor growth inhibition, subcutaneously implanted Lewis lung carcinoma; assay type: in vivo; settings: BDF1 mice
Experimental: Pre-prepared tumor mass (Lewis lung carcinoma) of 8 mm^3 was subcutaneously implanted into the right axillary region of BDF1 mice (4 weeks). When the tumor size was 100-200 mm^3, mice were divided randomly into treatment group and control group. The treatment group was administered subcutaneously with O-(4-ethylaminoethoxycinnamoyl)fumagillol or the complex of O-(4-ethylaminoethoxycinnamoyl)fumagillol with hydroxypropyl-β-cyclodextrin at a dose of 30 mg/kg or 120 mg/kg as O-(4-ethylaminoethoxycinnamoyl)fumagillol every other day for 5 injections, while the control group was given injections of 0.2 ml of phosphate buffered saline. The tumors were weighed on the final day, and tumor volume was calculated using the following equation:
Tumor volume (mm^3)=a×b^2×0.5
(a: the longest diameter, b: the shortest diatheter) Inhibition ratio (IR %) of the treatment group relative to the untreated control group was calculated using the following equation:
=(1−Tumor volume of Treatment group/Tumor volume of Control group)×100
=(1−Tumor weight of Treatment group/Tumor weight of Control group)×100

[7] = Solubility in phosphate buffer (pH 6.7) containing hydroxypropyl-β-cyclodextrin; assay type: physicochemical; settings: 4° C., 72 hr
Experimental: O-(4-dimethylaminoethoxycinnamoyl)fumagillol (50 mg) was added to phosphate buffer (pH 6.7) containing 1.5, 3.5, 7.0 and 14.0 w/v % hydroxypropyl-β-cyclodextrin, respectively, and stirred at 4° C. After 72 hr, the mixture was filtered with 0.2 μm membrabe filter and O-(4-dimethylaminoethoxycinnamoyl)fumagillol in the filtrate was determined by high pressure liquid chromatography (HPLC). The solubility of O-(4-dimethylaminoethoxycinnamoyl)fumagillol as a function of the hydroxypropyl-β-cyclodextrin concentration was shown in Table 5.

[8] = Stability (hydrolysis) in acidic, neutral and basic solutions at 50° C. with hydroxypropyl-β-cyclodextrin; assay type: physicochemical
Experimental: The stability of O-(4-dimethylaminoethoxycinnamoyl)fumagillol was investigated in the presence of various concentrations of hydroxypropyl-β-cyclodextrin in acidic, neutral and basic solutions at 50° C. The residual amount of O-(4-dimethylaminoethoxycinnamoyl)fumagillol in each solution was determined by HPLC.

[9] = cited from earlier work
[10] = 0 w/v % sulfobutylether-7-β-cyclodextrin
[11] = 1.5 w/v % sulfobutylether-7-β-cyclodextrin
[12] = 3.5 w/v % sulfobutylether-7-β-cyclodextrin
[13] = 14.0 w/v % sulfobutylether-7-β-cyclodextrin
[14] = 28.0 w/v % sulfobutylether-7-β-cyclodextrin
[15] = 0 w/v % hydroxypropyl-β-cyclodextrin, 4° C., 72 hr
[16] = 1.5 w/v % hydroxypropyl-β-cyclodextrin
[17] = 3.5 w/v % hydroxypropyl-β-cyclodextrin
[18] = 14.0 w/v % hydroxypropyl-β-cyclodextrin
[19] = 28.0 w/v % hydroxypropyl-β-cyclodextrin
[20] = Total Dose 150 mg/kg (30 mg/kg subcutaneously every other day, 5 injections)
[21] = Total Dose 600 mg/kg (120 mg/kg subcutaneously every other day, 5 injections)
[22] = Acidic (pH 3.2), 2 w/v % hydroxypropyl-β-cyclodextrin
[23] = Acidic (pH 3.2), 5 w/v % hydroxypropyl-β-cyclodextrin
[24] = Acidic (pH 3.2), 10 w/v % hydroxypropyl-β-cyclodextrin
[25] = Acidic (pH 3.2), 20 w/v % hydroxypropyl-β-cyclodextrin
[26] = Basic (pH 11.5), 2 w/v % hydroxypropyl-β-cyclodextrin
[27] = Basic (pH 11.5), 5 w/v % hydroxypropyl-β-cyclodextrin
[28] = Basic (pH 11.5), 10 w/v % hydroxypropyl-β-cyclodextrin
[29] = Basic (pH 11.5), 20 w/v % hydroxypropyl-β-cyclodextrin
[30] = Neutral (pH 7.2), 2 w/v % hydroxypropyl-β-cyclodextrin
[31] = Neutral (pH 7.2), 5 w/v % hydroxypropyl-β-cyclodextrin
[32] = Neutral (pH 7.2), 10 w/v % hydroxypropyl-β-cyclodextrin
[33] = Neutral (pH 7.2), 20 w/v % hydroxypropyl-β-cyclodextrin

COc1cc(C=CC(=O)OC2CCC3(CO3)C(C3(C)OC3CC=C(C)C)C2OC)cc(OC)c1OC (centres unmarked) [O-(3,4,5-trimethoxycinnamoyl)fumagillol]
Solubility [1, 10]: 2 µg/mL (≈ 0.00398 mM) | Solubility [1, 11]: 580 µg/mL (≈ 1.15 mM) | Solubility [1, 12]: 1380 µg/mL (≈ 2.75 mM) | Solubility ([1]; 7.0 w/v % sulfobutylether-7-β-cyclodextrin): 2750 µg/mL (≈ 5.47 mM) | Solubility [1, 13]: 5690 µg/mL (≈ 11.3 mM) | Solubility [1, 14]: 11670 µg/mL (≈ 23.2 mM) | Solubility [2, 15]: 2 µg/mL (≈ 0.00398 mM) | Solubility [3, 16]: 430 µg/mL (≈ 0.856 mM) | Solubility [3, 17]: 1520 µg/mL (≈ 3.02 mM) | Solubility ([3]; 7.0 w/v % hydroxypropyl-β-cyclodextrin): 3540 µg/mL (≈ 7.04 mM) | Solubility [3, 18]: 6720 µg/mL (≈ 13.4 mM) | Solubility [3, 19]: 12020 µg/mL (≈ 23.9 mM) | Residual amount of O-(3,4,5-trimethoxycinnamoyl)fumagillol (%) after 1 month ([4]; 25° C., after 1 month): 65.3%

CO[C@@H]1[C@H](OC(=O)C=Cc2ccc(OCCN(C)C)cc2)CC[C@]2(CO2)[C@H]1[C@@]1(C)O[C@@H]1CC=C(C)C [O-(4-dimethylaminoethoxycinnamoyl)fumagillol]
Solubility ([5]; aqueous formulation containing 10% Cremophor-EL alone): about 5 mg/ml | Solubility ([5]; aqueous formulation containing a mixture of 10% ethanol and 10% Tween 80): about 5 mg/ml | Inhibition Ratio (%), Tumor Tissue Volume [6, 20]: 37.7% | Inhibition Ratio (%), Tumor Tissue Weight [6, 20]: 33.6% | Inhibition Ratio (%), Tumor Tissue Volume [6, 21]: 63.3% | Inhibition Ratio (%), Tumor Tissue Weight [6, 21]: 71.4% | Solubility [1, 10]: 50 µg/mL (≈ 0.1 mM) | Solubility [1, 11]: 870 µg/mL (≈ 1.74 mM) | Solubility [1, 12]: 2240 µg/mL (≈ 4.48 mM) | Solubility [1, 13]: 10430 µg/mL (≈ 20.9 mM) | Solubility [1, 14]: 21300 µg/mL (≈ 42.6 mM) | Solubility [2, 15]: 50 µg/mL (≈ 0.1 mM) | increase of aqueous solubility ([2]; depending the pH and the concentration of hydroxypropyl-β-cyclodextrin or sulfobutylether-7-β-cyclodextrin): 20-1000 fold | Solubility ([2]; in water): 50 µg/mL (≈ 0.1 mM) | Solubility ([7]; phosphate buffer pH 6.7, 0 w/v % hydroxypropyl-β-cyclodextrin): 2380 µg/mL (≈ 4.76 mM) | Solubility ([7]; phosphate buffer pH 6.7, 1.5 w/v % hydroxypropyl-β-cyclodextrin): 4240 µg/mL (≈ 8.49 mM) | Solubility ([7]; phosphate buffer pH 6.7, 3.5 w/v % hydroxypropyl-β-cyclodextrin): 9860 µg/mL (≈ 19.7 mM) | Solubility ([7]; phosphate buffer pH 6.7, 7.0 w/v % hydroxypropyl-β-cyclodextrin): 17590 µg/mL (≈ 35.2 mM) | Solubility [3, 16]: 1030 µg/mL (≈ 2.06 mM) | Solubility [3, 17]: 2930 µg/mL (≈ 5.86 mM) | Solubility [3, 18]: 11540 µg/mL (≈ 23.1 mM) | Solubility [3, 19]: 22640 µg/mL (≈ 45.3 mM) | Residual amount of O-(4-dimethylaminoethoxycinnamoyl)fumagillol (%) after 1 month ([4]; storage at 25° C., after 1 month): 72.8% | Residual amount of O-(4-dimethylaminoethoxycinnamoyl)fumagillol (%) after 3 month ([4]; storage at 25° C., after 3 month): 54.3% | kobs (Hydrolysis Rate Constant) ([8]; Acidic (pH 3.2), 0 w/v % hydroxypropyl-β-cyclodextrin): 0.2042 h⁻¹ | Inhibition ratio (%) [8, 22]: 52.20% | kobs (Hydrolysis Rate Constant) [8, 22]: 0.0976 h⁻¹ | Inhibition ratio (%) [8, 23]: 58.47% | kobs (Hydrolysis Rate Constant) [8, 23]: 0.0848 h⁻¹ | Inhibition ratio (%) [8, 24]: 63.08% | kobs (Hydrolysis Rate Constant) [8, 24]: 0.0754 h⁻¹ | Inhibition ratio (%) [8, 25]: 67.43% | kobs (Hydrolysis Rate Constant) [8, 25]: 0.0665 h⁻¹ | kobs (Hydrolysis Rate Constant) ([8]; Basic (pH 11.5), 0 w/v % hydroxypropyl-β-cyclodextrin): 0.0918 h⁻¹ | Inhibition ratio (%) [8, 26]: 5.00% | kobs (Hydrolysis Rate Constant) [8, 26]: 0.0816 h⁻¹ | Inhibition ratio (%) [8, 27]: 16.55% | kobs (Hydrolysis Rate Constant) [8, 27]: 0.0580 h⁻¹ | Inhibition ratio (%) [8, 28]: 22.77% | kobs (Hydrolysis Rate Constant) [8, 28]: 0.0453 h⁻¹ | Inhibition ratio (%) [8, 29]: 30.56% | kobs (Hydrolysis Rate Constant) [8, 29]: 0.0294 h⁻¹ | kobs (Hydrolysis Rate Constant) ([8]; Neutral (pH 7.2), 0 w/v % hydroxypropyl-β-cyclodextrin): 0.0162 h⁻¹ | Inhibition ratio (%) [8, 30]: 12.96% | kobs (Hydrolysis Rate Constant) [8, 30]: 0.0141 h⁻¹ | Inhibition ratio (%) [8, 31]: 15.43% | kobs (Hydrolysis Rate Constant) [8, 31]: 0.0137 h⁻¹ | Inhibition ratio (%) [8, 32]: 24.96% | kobs (Hydrolysis Rate Constant) [8, 32]: 0.0122 h⁻¹ | Inhibition ratio (%) [8, 33]: 29.01% | kobs (Hydrolysis Rate Constant) [8, 33]: 0.0115 h⁻¹

OC[C@H]1O[C@@H]2O[C@H]3[C@H](O)[C@@H](O)[C@@H](O[C@H]4[C@H](O)[C@@H](O)[C@@H](O[C@H]5[C@H](O)[C@@H](O)[C@@H](O[C@H]6[C@H](O)[C@@H](O)[C@@H](O[C@H]7[C@H](O)[C@@H](O)[C@@H](O[C@H]8[C@H](O)[C@@H](O)[C@@H](O[C@H]1[C@H](O)[C@H]2O)O[C@@H]8CO)O[C@@H]7CO)O[C@@H]6CO)O[C@@H]5CO)O[C@@H]4CO)O[C@@H]3CO [β-cyclodextrin]
aqueous solubility [9]: 1.8 g per 100 ml of water
